For one experiment, the target named is T1, hTRPA1 (Homo sapiens, UniProt O75762).
T1 construct: gene TRPA1
In words: intracellular calcium fluorescence assay (Calcium […] dye, FlexStation […]). It is filed as cell-based. Background: A change in cytosolic calcium serves as a functional read-out for many receptors and channels.

The target of another experiment is T2, hTRPV1 (Homo sapiens, UniProt Q8NER1).
T2 construct: gene TRPV1
The experiment is described as above. It is filed as cell-based.

T1 sequence (O75762 whole entry): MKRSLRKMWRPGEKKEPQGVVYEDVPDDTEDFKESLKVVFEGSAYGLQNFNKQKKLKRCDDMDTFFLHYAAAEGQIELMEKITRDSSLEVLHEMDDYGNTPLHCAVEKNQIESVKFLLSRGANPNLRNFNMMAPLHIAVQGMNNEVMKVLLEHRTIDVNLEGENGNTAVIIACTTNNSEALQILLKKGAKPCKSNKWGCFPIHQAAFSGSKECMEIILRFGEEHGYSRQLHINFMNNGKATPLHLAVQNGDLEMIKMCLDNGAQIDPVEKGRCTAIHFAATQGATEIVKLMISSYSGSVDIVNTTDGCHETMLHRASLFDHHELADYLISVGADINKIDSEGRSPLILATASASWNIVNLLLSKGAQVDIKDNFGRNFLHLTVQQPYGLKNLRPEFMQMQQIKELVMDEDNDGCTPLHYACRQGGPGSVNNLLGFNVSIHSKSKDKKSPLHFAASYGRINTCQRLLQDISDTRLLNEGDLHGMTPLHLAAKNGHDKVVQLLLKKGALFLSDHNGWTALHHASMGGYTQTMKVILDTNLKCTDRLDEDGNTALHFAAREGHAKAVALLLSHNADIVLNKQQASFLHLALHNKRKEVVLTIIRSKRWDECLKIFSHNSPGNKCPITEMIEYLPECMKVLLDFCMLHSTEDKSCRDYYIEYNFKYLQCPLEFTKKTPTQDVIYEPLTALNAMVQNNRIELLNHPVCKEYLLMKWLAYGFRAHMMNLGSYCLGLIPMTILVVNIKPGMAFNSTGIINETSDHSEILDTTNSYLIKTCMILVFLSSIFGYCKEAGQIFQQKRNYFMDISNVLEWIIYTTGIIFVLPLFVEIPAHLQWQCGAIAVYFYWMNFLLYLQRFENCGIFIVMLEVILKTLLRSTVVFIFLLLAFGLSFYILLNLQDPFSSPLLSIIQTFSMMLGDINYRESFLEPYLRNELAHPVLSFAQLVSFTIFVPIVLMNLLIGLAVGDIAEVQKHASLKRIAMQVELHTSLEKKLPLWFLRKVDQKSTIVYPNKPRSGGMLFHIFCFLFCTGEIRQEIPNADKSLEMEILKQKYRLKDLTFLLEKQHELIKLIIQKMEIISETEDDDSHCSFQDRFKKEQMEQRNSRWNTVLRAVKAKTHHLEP
T2 sequence (Q8NER1 whole entry): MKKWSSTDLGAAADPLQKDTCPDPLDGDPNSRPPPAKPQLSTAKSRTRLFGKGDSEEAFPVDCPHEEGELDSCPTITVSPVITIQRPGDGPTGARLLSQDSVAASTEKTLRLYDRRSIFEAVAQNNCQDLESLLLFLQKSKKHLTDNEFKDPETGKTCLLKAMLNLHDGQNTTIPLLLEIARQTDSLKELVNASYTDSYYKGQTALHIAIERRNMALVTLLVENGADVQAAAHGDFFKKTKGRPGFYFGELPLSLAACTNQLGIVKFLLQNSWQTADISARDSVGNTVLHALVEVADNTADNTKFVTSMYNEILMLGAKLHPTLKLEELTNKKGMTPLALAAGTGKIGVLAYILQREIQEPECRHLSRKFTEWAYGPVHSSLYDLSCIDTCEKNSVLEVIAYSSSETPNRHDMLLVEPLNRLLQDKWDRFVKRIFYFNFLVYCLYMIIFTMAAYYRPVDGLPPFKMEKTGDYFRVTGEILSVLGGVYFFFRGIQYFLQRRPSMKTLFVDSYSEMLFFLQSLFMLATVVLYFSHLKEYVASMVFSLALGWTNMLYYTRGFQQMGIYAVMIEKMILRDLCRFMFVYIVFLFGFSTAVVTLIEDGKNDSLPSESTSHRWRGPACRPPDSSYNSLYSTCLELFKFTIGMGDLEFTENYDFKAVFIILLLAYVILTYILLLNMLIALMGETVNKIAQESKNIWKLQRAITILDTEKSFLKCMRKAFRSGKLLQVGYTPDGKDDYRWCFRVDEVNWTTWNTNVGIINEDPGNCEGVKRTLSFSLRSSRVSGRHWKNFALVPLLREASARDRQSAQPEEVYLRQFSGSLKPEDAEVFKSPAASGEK

For the compound `CCCCC/C=C\C/C=C\C/C=C\C/C=C\CCCC(=O)OC(CO)CO` [2-arachidonoylglycerol], the EC50 at hTRPA1 amounted to 10 µM.
As to `CCCCC/C=C\C/C=C\C/C=C\C/C=C\CCCC(=O)NCCO` [anandamide], the EC50 at hTRPV1 is 4.3 µM.
Consider `O=CC=Cc1ccccc1` [cinnamaldehyde], for which the EC50 on hTRPA1 was 12 µM.
Same read-out and setting: in the case of `CCCCCc1cc(O)c2c(c1)OC(C)(C)[C@@H]1CCC(C)=C[C@@H]21` [Δ9-tetrahydrocannabinol] it was 9 µM.

Usually EC50 stands for the concentration giving half of the maximal effect.

These data come from PMC7759271 (Cannabis and Cannabinoid Research, 2020).
